What was measured:
Experiment in all cases: relative viability (nuclei count vs DMSO), 5 days (fraction); higher = more cells survive
ChaGo-K-1 = test system: ChaGo-K-1
Method in brief: (§1)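 Five library-drug doses in √10 steps were combined with a fixed anchor-drug dose, or a single drug was given alone, by pin tool to lung cancer cell lines in 1536-well plates the day after seeding. Nuclei were stained and counted after 5 days. Relative viability is the nuclei count in treated wells over that in vehicle wells, taken as the median of duplicate plates.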

NCI-H727 = test system: NCI-H727
Method in brief: as §1

HCC-827 = test system: HCC-827
Method in brief: as §1

SK-MES-1 = test system: SK-MES-1
Method in brief: as §1

EMC-BAC-2 = test system: EMC-BAC-2
Method in brief: as §1

NCI-H2126 = test system: NCI-H2126
Method in brief: as §1

HCC-78 = test system: HCC-78
Method in brief: as §1

COR-L 105 = test system: COR-L 105
Method in brief: as §1

LU99A = test system: LU99A
Method in brief: as §1

LOU-NH91 = test system: LOU-NH91
Method in brief: as §1

EPLC-272H = test system: EPLC-272H
Method in brief: as §1

NCI-H1734 = test system: NCI-H1734
Method in brief: as §1

BEN = test system: BEN
Method in brief: as §1

LK-2 = test system: LK-2
Method in brief: as §1

NCI-H1792 = test system: NCI-H1792
Method in brief: as §1

SW 1573 = test system: SW 1573
Method in brief: as §1

RERF-LC-KJ = test system: RERF-LC-KJ
Method in brief: as §1

NCI-H1944 = test system: NCI-H1944
Method in brief: as §1

NCI-H1650 = test system: NCI-H1650
Method in brief: as §1

EKVX = test system: EKVX
Method in brief: as §1

NCI-H358 = test system: NCI-H358
Method in brief: as §1

LCLC-97TM1 = test system: LCLC-97TM1
Method in brief: as §1

NCI-H2087 = test system: NCI-H2087
Method in brief: as §1

`O=C(O)CCCCC(CCSCc1ccccc1)SCc1ccccc1` (stereo not drawn) [CPI-613] + Nc1ncn([C@H]2C[C@H](O)[C@@H](CO)O2)c(=O)n1 [Decitabine] (partner 2 µM) was tested, and the relative viability (ChaGo-K-1; first compound 5 µM) was 0.489, the relative viability (ChaGo-K-1; first compound 15.81 µM) was 0.517 and the relative viability (ChaGo-K-1; first compound 50 µM) was 0.514. It also gave a relative viability (ChaGo-K-1; first compound 158.11 µM) of 0.274, a relative viability (ChaGo-K-1; first compound 500 µM) of 0.161 and a relative viability (NCI-H727; first compound 5 µM) of 0.803. The relative viability (NCI-H727; first compound 15.81 µM) was 0.786, the relative viability (NCI-H727; first compound 50 µM) was 0.894 and the relative viability (NCI-H727; first compound 158.11 µM) was 0.776. The relative viability (NCI-H727; first compound 500 µM) was 0.828, the relative viability (HCC-827; first compound 5 µM) was 0.363 and the relative viability (HCC-827; first compound 15.81 µM) was 0.31. For the same molecule, the relative viability (HCC-827; first compound 50 µM) was 0.359, the relative viability (HCC-827; first compound 158.11 µM) was 0.301 and the relative viability (HCC-827; first compound 500 µM) was 0.29. The relative viability (SK-MES-1; first compound 5 µM) was 0.422, the relative viability (SK-MES-1; first compound 15.81 µM) was 0.367 and the relative viability (SK-MES-1; first compound 50 µM) was 0.377. It also gave a relative viability (SK-MES-1; first compound 158.11 µM) of 0.19, a relative viability (SK-MES-1; first compound 500 µM) of 0.103 and a relative viability (EMC-BAC-2; first compound 5 µM) of 0.982. For the same molecule, the relative viability (EMC-BAC-2; first compound 15.81 µM) was 0.9, the relative viability (EMC-BAC-2; first compound 50 µM) was 0.942 and the relative viability (EMC-BAC-2; first compound 158.11 µM) was 0.74. The relative viability (EMC-BAC-2; first compound 500 µM) was 0.632, the relative viability (NCI-H2126; first compound 5 µM) was 0.536 and the relative viability (NCI-H2126; first compound 15.81 µM) was 0.578. For the same molecule, the relative viability (NCI-H2126; first compound 50 µM) was 0.599, the relative viability (NCI-H2126; first compound 158.11 µM) was 0.188 and the relative viability (NCI-H2126; first compound 500 µM) was 0.132. It also gave a relative viability (HCC-78; first compound 15.81 µM) of 0.709, a relative viability (HCC-78; first compound 50 µM) of 0.836 and a relative viability (HCC-78; first compound 158.11 µM) of 0.691. For the same molecule, the relative viability (HCC-78; first compound 500 µM) was 0.742, the relative viability (COR-L 105; first compound 5 µM) was 0.68 and the relative viability (COR-L 105; first compound 15.81 µM) was 0.671. It also gave a relative viability (COR-L 105; first compound 50 µM) of 0.668, a relative viability (COR-L 105; first compound 158.11 µM) of 0.375 and a relative viability (COR-L 105; first compound 500 µM) of 0.22. For the same molecule, the relative viability (LU99A; first compound 5 µM) was 0.886, the relative viability (LU99A; first compound 15.81 µM) was 0.79 and the relative viability (LU99A; first compound 50 µM) was 0.815. It also gave a relative viability (LU99A; first compound 158.11 µM) of 0.79, a relative viability (LU99A; first compound 500 µM) of 0.219 and a relative viability (LOU-NH91; first compound 5 µM) of 0.794. It also gave a relative viability (LOU-NH91; first compound 15.81 µM) of 0.783, a relative viability (LOU-NH91; first compound 50 µM) of 0.819 and a relative viability (LOU-NH91; first compound 158.11 µM) of 0.765. It also gave a relative viability (LOU-NH91; first compound 500 µM) of 0.683, a relative viability (EPLC-272H; first compound 5 µM) of 0.358 and a relative viability (EPLC-272H; first compound 15.81 µM) of 0.386. For the same molecule, the relative viability (EPLC-272H; first compound 50 µM) was 0.429, the relative viability (EPLC-272H; first compound 158.11 µM) was 0.343 and the relative viability (EPLC-272H; first compound 500 µM) was 0.319. It also gave a relative viability (NCI-H1734; first compound 5 µM) of 0.488, a relative viability (NCI-H1734; first compound 15.81 µM) of 0.46 and a relative viability (NCI-H1734; first compound 50 µM) of 0.437. The relative viability (NCI-H1734; first compound 158.11 µM) was 0.409, the relative viability (NCI-H1734; first compound 500 µM) was 0.111 and the relative viability (BEN; first compound 5 µM) was 0.773. For the same molecule, the relative viability (BEN; first compound 15.81 µM) was 0.649, the relative viability (BEN; first compound 50 µM) was 0.802 and the relative viability (BEN; first compound 158.11 µM) was 0.625. The relative viability (BEN; first compound 500 µM) was 0.608, the relative viability (LK-2; first compound 5 µM) was 0.336 and the relative viability (LK-2; first compound 15.81 µM) was 0.274. It also gave a relative viability (LK-2; first compound 50 µM) of 0.275, a relative viability (LK-2; first compound 158.11 µM) of 0.313 and a relative viability (LK-2; first compound 500 µM) of 0.283. It also gave a relative viability (NCI-H1792; first compound 5 µM) of 0.571, a relative viability (NCI-H1792; first compound 15.81 µM) of 0.449 and a relative viability (NCI-H1792; first compound 50 µM) of 0.572. For the same molecule, the relative viability (NCI-H1792; first compound 158.11 µM) was 0.253, the relative viability (NCI-H1792; first compound 500 µM) was 0.0627 and the relative viability (SW 1573; first compound 5 µM) was 0.437. The relative viability (SW 1573; first compound 15.81 µM) was 0.399, the relative viability (SW 1573; first compound 50 µM) was 0.498 and the relative viability (SW 1573; first compound 158.11 µM) was 0.207. For the same molecule, the relative viability (SW 1573; first compound 500 µM) was 0.0549, the relative viability (RERF-LC-KJ; first compound 5 µM) was 0.663 and the relative viability (RERF-LC-KJ; first compound 15.81 µM) was 0.619. For the same molecule, the relative viability (RERF-LC-KJ; first compound 50 µM) was 0.643, the relative viability (RERF-LC-KJ; first compound 158.11 µM) was 0.272 and the relative viability (RERF-LC-KJ; first compound 500 µM) was 0.199. It also gave a relative viability (NCI-H1944; first compound 5 µM) of 0.429, a relative viability (NCI-H1944; first compound 15.81 µM) of 0.406 and a relative viability (NCI-H1944; first compound 50 µM) of 0.395. It also gave a relative viability (NCI-H1944; first compound 158.11 µM) of 0.277, a relative viability (NCI-H1944; first compound 500 µM) of 0.168 and a relative viability (NCI-H1650; first compound 5 µM) of 0.475. For the same molecule, the relative viability (NCI-H1650; first compound 15.81 µM) was 0.443, the relative viability (NCI-H1650; first compound 50 µM) was 0.332 and the relative viability (NCI-H1650; first compound 158.11 µM) was 0.169. The relative viability (NCI-H1650; first compound 500 µM) was 0.0363, the relative viability (EKVX; first compound 5 µM) was 0.29 and the relative viability (EKVX; first compound 15.81 µM) was 0.348. The relative viability (EKVX; first compound 50 µM) was 0.423, the relative viability (EKVX; first compound 500 µM) was 0.397 and the relative viability (NCI-H358; first compound 5 µM) was 0.235. It also gave a relative viability (NCI-H358; first compound 15.81 µM) of 0.2, a relative viability (NCI-H358; first compound 50 µM) of 0.219 and a relative viability (NCI-H358; first compound 158.11 µM) of 0.136. The relative viability (NCI-H358; first compound 500 µM) was 0.02, the relative viability (LCLC-97TM1; first compound 5 µM) was 0.251 and the relative viability (LCLC-97TM1; first compound 15.81 µM) was 0.213. It also gave a relative viability (LCLC-97TM1; first compound 50 µM) of 0.261, a relative viability (LCLC-97TM1; first compound 158.11 µM) of 0.0572 and a relative viability (LCLC-97TM1; first compound 500 µM) of 0.051. It also gave a relative viability (NCI-H2087; first compound 5 µM) of 0.261, a relative viability (NCI-H2087; first compound 15.81 µM) of 0.218 and a relative viability (NCI-H2087; first compound 50 µM) of 0.221. For the same molecule, the relative viability (NCI-H2087; first compound 158.11 µM) was 0.115 and the relative viability (NCI-H2087; first compound 500 µM) was 0.0094.

Source: the supplement of paper PMC10307832
